Reference: patent US20090048288A1, “METHOD OF TREATING STRESS-MEDIATED DEPRESSION” (H. Lundbeck A/S, priority 2007, published 2009)
Entries after “also recorded” stand apart in the source; their conditions may differ.

Test system: Chronic mild stress model in rats
Test: Chronic mild stress model in rats, serum marker analysis
Conditions: for Apo A1 (Apolipoprotein A1), median value: serum 24 hrs after last drug injection; for reversal of chronic mild stress induced changes in serum inflammatory markers / cytokine levels: rats exposed to chronic mild stress, compared with non-stressed controls
Text: The biochemical changes induced in the animals studied in the stress models lead to increases in inflammatory mediators/markers.
At the end of the present study, terminal serum samples were collected for marker analysis to evaluate the effects of stress with and without drug on the levels of about 60 blood markers.
Serum samples were withdrawn from the tail, without stunning, during the daytime (09:00-17:00) 24 hrs after the last drug injection. Blood was collected into BD vacutainers containing clot activator and gel for serum preparation, inverted 5 times and maintained on ice until centrifugation at 3000 rpm for 10 min at 4° C. Serum was decanted, placed on ice, and at the end of the day stored at −80° C.

SMILES: CN(C)CCC[C@@]1(c2ccc(F)cc2)OCc2cc(C#N)ccc21 [ESC, escitalopram, reference compound]
- CRP (C Reactive Protein), median value (1st study, 5 mg/kg, serum): 1060.00 µg/mL
- Eotaxin, median value (1st study, 5 mg/kg, serum): 1300.00 pg/mL
- FGF-9 (Fibroblast Growth Factor-9), median value (1st study, 5 mg/kg, serum): 0.90 ng/mL
- GCP-2 (Granulocyte Chemotactic Protein-2), median value (1st study, 5 mg/kg, serum): 0.21 ng/mL
- Growth Hormone, median value (1st study, 5 mg/kg, serum): 1.38 ng/mL
- IL-1alpha (Interleukin-1alpha), median value (1st study, 5 mg/kg, serum): 15.40 pg/mL
- IL-2 (Interleukin-2), median value (1st study, 5 mg/kg, serum): 38.80 pg/mL
- IL-4 (Interleukin-4), median value (1st study, 5 mg/kg, serum): 51.70 pg/mL
- IL-7 (Interleukin-7), median value (1st study, 5 mg/kg, serum): 0.22 ng/mL
- IL-10 (Interleukin-10), median value (1st study, 5 mg/kg, serum): 317.00 pg/mL
- IL-11 (Interleukin-11), median value (1st study, 5 mg/kg, serum): 166.00 pg/mL
- IP-10 (Inducible Protein-10), median value (1st study, 5 mg/kg, serum): 194.00 pg/mL
- IgA (Immunoglobulin A), median value (1st study, 5 mg/kg, serum): 6.54 µg/mL
- Insulin, median value (1st study, 5 mg/kg, serum): 11.30 uIU/mL
- LIF (Leukemia Inhibitory Factor), median value (1st study, 5 mg/kg, serum): 67.20 pg/mL
- Leptin, median value (1st study, 5 mg/kg, serum): 2.62 ng/mL
- Lymphotactin, median value (1st study, 5 mg/kg, serum): 68.00 pg/mL
- M-CSF (Macrophage-Colony Stimulating Factor), median value (1st study, 5 mg/kg, serum): 941.00 ng/mL
- MCP-1 (Monocyte Chemoattractant Protein-1), median value (1st study, 5 mg/kg, serum): 1500.00 pg/mL
- MCP-3 (Monocyte Chemoattractant Protein-3), median value (1st study, 5 mg/kg, serum): 885.00 pg/mL
- MCP-5 (Monocyte Chemoattractant Protein-5), median value (1st study, 5 mg/kg, serum): 0.87 pg/mL
- MIP-1alpha (Macrophage Inflammatory Protein-1alpha), median value (1st study, 5 mg/kg, serum): 244.00 ng/mL
- MIP-1gamma (Macrophage Inflammatory Protein-1gamma), median value (1st study, 5 mg/kg, serum): 11.50 ng/mL
- MIP-2 (Macrophage Inflammatory Protein-2), median value (1st study, 5 mg/kg, serum): 0.09 pg/mL
- MPO (Myeloperoxidase), median value (1st study, 5 mg/kg, serum): 54.60 ng/mL
- NGAL (Lipocalin-2), median value (1st study, 5 mg/kg, serum): 0.22 ng/mL
- Osteopontin, median value (1st study, 5 mg/kg, serum): 310.00 ng/mL
- SAP (Serum Amyloid P), median value (1st study, 5 mg/kg, serum): 178.00 µg/mL
- SCF (Stem Cell Factor), median value (1st study, 5 mg/kg, serum): 16.95 pg/mL
- SGOT (Serum Glutamic-Oxaloacetic Transaminase), median value (1st study, 5 mg/kg, serum): 0.31 µg/mL
- TIMP-1 (Tissue Inhibitor of Metalloproteinase Type-1), median value (1st study, 5 mg/kg, serum): 0.22 ng/mL
- TPO (Thrombopoietin), median value (1st study, 5 mg/kg, serum): 142.00 ng/mL
- Tissue Factor, median value (1st study, 5 mg/kg, serum): 0.15 ng/mL
- VCAM-1 (Vascular Cell Adhesion Molecule-1), median value (1st study, 5 mg/kg, serum): 409.00 ng/mL
- VEGF (Vascular Endothelial Cell Growth Factor), median value (1st study, 5 mg/kg, serum): 106.00 pg/mL
- Apo A1 (Apolipoprotein A1), median value (1st study, 5 mg/kg): 8.40 µg/mL
- reversal of chronic mild stress induced changes in serum inflammatory markers / cytokine levels: inactive at most of these changes

SMILES: Oc1noc2c1CCNC2 [GBX, 4,5,6,7-tetrahydroisoxazolo[5,4-c]pyridine-3-ol]
- CRP (C Reactive Protein), median value (1st study, 5 mg/kg, serum): 1140.00 µg/mL
- Cystatin-C, median value (1st study, 5 mg/kg, serum): 1165.00 ng/mL
- FGF-9 (Fibroblast Growth Factor-9), median value (1st study, 5 mg/kg, serum): 0.59 ng/mL
- GCP-2 (Granulocyte Chemotactic Protein-2), median value (1st study, 5 mg/kg, serum): 0.19 ng/mL
- Growth Hormone, median value (1st study, 5 mg/kg, serum): 7.67 ng/mL
- IL-1alpha (Interleukin-1alpha), median value (1st study, 5 mg/kg, serum): 11.30 pg/mL
- IL-2 (Interleukin-2), median value (1st study, 5 mg/kg, serum): 31.30 pg/mL
- IL-4 (Interleukin-4), median value (1st study, 5 mg/kg, serum): 29.60 pg/mL
- IL-7 (Interleukin-7), median value (1st study, 5 mg/kg, serum): 0.16 ng/mL
- IL-10 (Interleukin-10), median value (1st study, 5 mg/kg, serum): 249.00 pg/mL
- IL-11 (Interleukin-11), median value (1st study, 5 mg/kg, serum): 128.00 pg/mL
- IL-18 (Interleukin-18), median value (1st study, 5 mg/kg, serum): 0.07 ng/mL
- IP-10 (Inducible Protein-10), median value (1st study, 5 mg/kg, serum): 138.00 pg/mL
- IgA (Immunoglobulin A), median value (1st study, 5 mg/kg, serum): 5.91 µg/mL
- Insulin, median value (1st study, 5 mg/kg, serum): 8.88 uIU/mL
- LIF (Leukemia Inhibitory Factor), median value (1st study, 5 mg/kg, serum): 53.90 pg/mL
- Leptin, median value (1st study, 5 mg/kg, serum): 2.59 ng/mL
- Lymphotactin, median value (1st study, 5 mg/kg, serum): 53.80 pg/mL
- M-CSF (Macrophage-Colony Stimulating Factor), median value (1st study, 5 mg/kg, serum): 865.00 ng/mL
- MCP-1 (Monocyte Chemoattractant Protein-1), median value (1st study, 5 mg/kg, serum): 1185.00 pg/mL
- MCP-3 (Monocyte Chemoattractant Protein-3), median value (1st study, 5 mg/kg, serum): 655.00 pg/mL
- MCP-5 (Monocyte Chemoattractant Protein-5), median value (1st study, 5 mg/kg, serum): 0.77 pg/mL
- MIP-1alpha (Macrophage Inflammatory Protein-1alpha), median value (1st study, 5 mg/kg, serum): 173.00 ng/mL
- MIP-1gamma (Macrophage Inflammatory Protein-1gamma), median value (1st study, 5 mg/kg, serum): 7.95 ng/mL
- MIP-2 (Macrophage Inflammatory Protein-2), median value (1st study, 5 mg/kg, serum): 0.08 pg/mL
- MPO (Myeloperoxidase), median value (1st study, 5 mg/kg, serum): 20.80 ng/mL
- NGAL (Lipocalin-2), median value (1st study, 5 mg/kg, serum): 0.17 ng/mL
- Osteopontin, median value (1st study, 5 mg/kg, serum): 396.00 ng/mL
- SAP (Serum Amyloid P), median value (1st study, 5 mg/kg, serum): 133.00 µg/mL
- SCF (Stem Cell Factor), median value (1st study, 5 mg/kg, serum): 14.85 pg/mL
- SGOT (Serum Glutamic-Oxaloacetic Transaminase), median value (1st study, 5 mg/kg, serum): 0.21 µg/mL
- TIMP-1 (Tissue Inhibitor of Metalloproteinase Type-1), median value (1st study, 5 mg/kg, serum): 0.16 ng/mL
- TPO (Thrombopoietin), median value (1st study, 5 mg/kg, serum): 147.00 ng/mL
- Tissue Factor, median value (1st study, 5 mg/kg, serum): 0.10 ng/mL
- VCAM-1 (Vascular Cell Adhesion Molecule-1), median value (1st study, 5 mg/kg, serum): 361.00 ng/mL
- VEGF (Vascular Endothelial Cell Growth Factor), median value (1st study, 5 mg/kg, serum): 81.00 pg/mL
- Apo A1 (Apolipoprotein A1), median value (1st study, 5 mg/kg): 8.20 µg/mL
- Beta-2 Microglobulin, median value (2nd study, 10 mg/kg, serum): 38.00 µg/mL
- CRP (C Reactive Protein), median value (2nd study, 10 mg/kg, serum): 1030.00 µg/mL
- Clusterin, median value (2nd study, 10 mg/kg, serum): 108.00 µg/mL
- Cystatin-C, median value (2nd study, 10 mg/kg, serum): 696.00 ng/mL
- Eotaxin, median value (2nd study, 10 mg/kg, serum): 1072.00 pg/mL
- FGF-9 (Fibroblast Growth Factor-9), median value (2nd study, 10 mg/kg, serum): 1.70 ng/mL
- Factor VII, median value (2nd study, 10 mg/kg, serum): 0.30 ng/mL
- GCP-2 (Granulocyte Chemotactic Protein-2), median value (2nd study, 10 mg/kg, serum): 0.29 ng/mL
- GST-Mu, median value (2nd study, 10 mg/kg, serum): 1190.00 ng/mL
- Growth Hormone, median value (2nd study, 10 mg/kg, serum): 3.10 ng/mL
- IL-1beta (Interleukin-1beta), median value (2nd study, 10 mg/kg, serum): 0.56 ng/mL
- IL-2 (Interleukin-2), median value (2nd study, 10 mg/kg, serum): 22.00 pg/mL
- IL-5 (Interleukin-5), median value (2nd study, 10 mg/kg, serum): 0.24 ng/mL
- IL-7 (Interleukin-7), median value (2nd study, 10 mg/kg, serum): 0.06 ng/mL
- IL-10 (Interleukin-10), median value (2nd study, 10 mg/kg, serum): 362.00 pg/mL
- IL-18 (Interleukin-18), median value (2nd study, 10 mg/kg, serum): 0.43 ng/mL
- IP-10 (Inducible Protein-10), median value (2nd study, 10 mg/kg, serum): 41.00 pg/mL
- IgA (Immunoglobulin A), median value (2nd study, 10 mg/kg, serum): 4.30 µg/mL
- Insulin, median value (2nd study, 10 mg/kg, serum): 14.50 uIU/mL
- LIF (Leukemia Inhibitory Factor), median value (2nd study, 10 mg/kg, serum): 67.00 pg/mL
- Leptin, median value (2nd study, 10 mg/kg, serum): 1.35 ng/mL
- Lymphotactin, median value (2nd study, 10 mg/kg, serum): 63.00 pg/mL
- M-CSF (Macrophage-Colony Stimulating Factor), median value (2nd study, 10 mg/kg, serum): 1400.00 ng/mL
- MCP-1 (Monocyte Chemoattractant Protein-1), median value (2nd study, 10 mg/kg, serum): 1020.00 pg/mL
- MCP-3 (Monocyte Chemoattractant Protein-3), median value (2nd study, 10 mg/kg, serum): 659.00 pg/mL
- MCP-5 (Monocyte Chemoattractant Protein-5), median value (2nd study, 10 mg/kg, serum): 0.72 pg/mL
- MDC (Macrophage-Derived Chemokine), median value (2nd study, 10 mg/kg, serum): 0.12 pg/mL
- MIP-1alpha (Macrophage Inflammatory Protein-1alpha), median value (2nd study, 10 mg/kg, serum): 127.00 ng/mL
- MIP-1beta (Macrophage Inflammatory Protein-1beta), median value (2nd study, 10 mg/kg, serum): 0.01 pg/mL
- MIP-1gamma (Macrophage Inflammatory Protein-1gamma), median value (2nd study, 10 mg/kg, serum): 19.00 ng/mL
- MIP-2 (Macrophage Inflammatory Protein-2), median value (2nd study, 10 mg/kg, serum): 0.22 pg/mL
- MIP-3beta (Macrophage Inflammatory Protein-3beta), median value (2nd study, 10 mg/kg, serum): 29.70 ng/mL
- MPO (Myeloperoxidase), median value (2nd study, 10 mg/kg, serum): 533.00 ng/mL
- Myoglobin, median value (2nd study, 10 mg/kg, serum): 520.00 ng/mL
- NGAL (Lipocalin-2), median value (2nd study, 10 mg/kg, serum): 0.15 ng/mL
- OSM (Oncostatin M), median value (2nd study, 10 mg/kg, serum): 19.10 ng/mL
- Osteopontin, median value (2nd study, 10 mg/kg, serum): 255.00 ng/mL
- RANTES (Regulation Upon Activation, Normal T-Cell Expressed and Secreted), median value (2nd study, 10 mg/kg, serum): 10.60 pg/mL
- SAP (Serum Amyloid P), median value (2nd study, 10 mg/kg, serum): 403.00 µg/mL
- SCF (Stem Cell Factor), median value (2nd study, 10 mg/kg, serum): 11.30 pg/mL
- SGOT (Serum Glutamic-Oxaloacetic Transaminase), median value (2nd study, 10 mg/kg, serum): 8.53 µg/mL
- TIMP-1 (Tissue Inhibitor of Metalloproteinase Type-1), median value (2nd study, 10 mg/kg, serum): 0.24 ng/mL
- TNF-alpha (Tumor Necrosis Factor-alpha), median value (2nd study, 10 mg/kg, serum): 4.45 ng/mL
- TPO (Thrombopoietin), median value (2nd study, 10 mg/kg, serum): 119.00 ng/mL
- Tissue Factor, median value (2nd study, 10 mg/kg, serum): 0.06 ng/mL
- VCAM-1 (Vascular Cell Adhesion Molecule-1), median value (2nd study, 10 mg/kg, serum): 353.00 ng/mL
- VEGF (Vascular Endothelial Cell Growth Factor), median value (2nd study, 10 mg/kg, serum): 78.00 pg/mL
- Apo A1 (Apolipoprotein A1), median value (2nd study, 10 mg/kg): 6.20 µg/mL
- reversal of chronic mild stress induced changes in serum inflammatory markers / cytokine levels (listed as gaboxadol): dose dependently was able to reverse most of the chronic mild stress induced changes in cytokine levels; also recorded: significantly reversed the stress-induced alterations in serum markers toward levels found in non-stressed controls; also recorded: dose dependently is able to reverse or partially reverse changes at most in inflammatory parameters induced by chronic mild stress
